# According to PubChem BioAssay AID434923 (Broad Institute, 2010):
# Inconclusive results are not listed. Active and inactive are the calls of the source.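 The calls were made as follows: active = fitted EC50 at most tenfold above the highest tested dose; inconclusive = flat fit with 30 to 70% signal loss, or poor fit; inactive = the rest.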
# Tested on: NIH-3T3 fibroblasts viability, Alamar Blue fluorescence, 48 h
# Assay: mammalian cell viability loss with fluconazole – Alamar Blue fluorescence, cytotoxicity control for reversing antifungal drug resistance, dose response (AID 434923)
row,SMILES,EC50
1,O=C1/C(=C\c2ccccc2)CCc2c1[nH]c1ccccc21,> 26 µM (inactive)
2,O=C(Nc1nnc(-c2ccc3c(c2)CCCC3)o1)c1ccc(Cl)cc1Cl,> 26 µM (inactive)
3,Cc1ccc(/C=C/C(=O)c2ccccc(=O)c2O)cc1C,> 26 µM (inactive)
4,COc1ccc(-c2nnc(NC(=O)c3ccc(F)cc3)o2)cc1,> 26 µM (inactive)
5,COc1cc2c(cc1NC(=O)c1ccco1)CCCC2,> 26 µM (inactive)
6,Clc1ccc2c(c1)C(c1cccs1)=NNC(c1cccnc1)=N2,> 26 µM (inactive)
7,COc1ccc(-n2nc(C(=O)NCC(=O)N3CCN(c4ccccc4)CC3)c3ccccc3c2=O)c(OC)c1,> 26 µM (inactive)
8,O=C(Nc1nnc(SCc2ccc(Cl)cc2)s1)c1ccc2ccccc2n1,12 µM
9,O=C(Nc1nc(-c2ccccn2)cs1)c1ccc(Br)s1,> 26 µM (inactive)
10,O=C(Oc1c(Cl)cc(Cl)c2cccnc12)c1cccs1,21.8 µM
11,O=C(NNC1=C(C(=O)C(F)(F)F)CCC1)c1ccc(Cl)cc1,> 26 µM (inactive)
12,O=C(Nc1nnc(CCc2ccccc2)s1)c1ccco1,> 26 µM (inactive)
13,CCCC(=O)NC(c1ccc(Cl)cc1)c1ccc2cccnc2c1O (stereo not given),3.44 µM
14,CCc1ccc2c(c1)/C(=C/C(=O)c1cccs1)C(=O)N2,14 µM
15,Nc1nccnc1C(=O)Nc1nnc(SCc2ccc(Cl)cc2)s1,> 26 µM (inactive)
16,c1ccc2c(c1)OCC(CNc1ncnc3sccc13)O2 (stereo not given),> 12 µM (inactive)
17,Cc1nc2ccccc2cc1OCc1ccc(F)cc1,> 26 µM (inactive)
18,CCOC(=O)c1c(-c2ccccc2Cl)cn2ccccc12,> 26 µM (inactive)
19,Cc1ccc(Nc2nc(N)c([N+](=O)[O-])c(N3CCC(C)CC3)n2)cc1C,> 26 µM (inactive)
20,CC(C)N1CCc2c(sc(NC(=O)c3nc4ccccc4s3)c2C(N)=O)C1,> 26 µM (inactive)
21,CCOC(=O)N1C(=O)C2(CCCCC2)N(c2ccc(C)cc2)C1=S,> 26 µM (inactive)
22,CC(C)COCc1ccc(O)c2ncccc12,< 0.1 µM
23,CCCC(=O)NC(c1ccccc1)c1ccc2cccnc2c1O (stereo not given),> 26 µM (inactive)
24,O=C(Nc1nnc(-c2ccco2)o1)c1ccc(Cl)cc1,> 26 µM (inactive)
25,O=C(Nc1sc2c(c1C(=O)c1ccc(Cl)cc1)CCCC2)c1cccnc1,> 26 µM (inactive)
